# Measurements reported in patent publication US20060093596A1, “Genomic approach to identification of novel broad-spectrum antimicrobial peptides from bony fish” (priority 2002, published 2006).
# “Also recorded” adds a separate entry of the source. Where no end group is shown, it is not given here.
# What was measured:
# [1] = test system: Pseudomonas aeruginosa Z61 (H188, supersusceptible strain); format: cell-based
# Protocol: (§2) Most non-fish bacterial strains as well as Candida albicans were grown at 37° C. in Mueller-Hinton Broth (MHB; Difco Laboratories, Detroit), while the fish bacteria were maintained at 16° C. in Tryptic Soy Broth (TSB; Difco, 5g/l NaCl). All strains were stored at −70° C. until they were thawed for use and sub-cultured daily. The following strains, Pseudomonas aeruginosa K799 (parent of Z61), Pseudomonas aeruginosa Z61 (antibiotic supersusceptible), Salmonella typhimurium 14028s (parent of MS7953s), Salmonella typhimurium MS7953s (defensin supersusceptible), as well as Staphylococcus epidermidis (human clinical isolates) and methicillin-resistant Staphylococcus aureus (MRSA; isolated by Dr. A. Chow, University of British Columbia) have been kindly donated by Prof R. E. W. Hancock, University of British Columbia.
# (§3) The activities of the antimicrobial peptides were determined as minimal inhibitory concentrations (MICs) using the microtitre broth dilution method of Amsterdam (Amsterdam, 1996), as modified by Wu and Hancock (1999). Serial dilutions of the peptide were made in water in 96-well polypropylene (Costar, Coming Incorporated, Coming, New York) microtiter plates. Bacteria or C. albicans were grown overnight to mid-logarithmic phase as described above, and diluted to give a final inoculum size of 10^6 cfu/ml. A suspension of bacteria or yeast was added to each well of a 96 well plate and incubated overnight at the appropriate temperature. […] Three repeats of each MIC determination were performed.
# P. aeruginosa K799 = test: Killing assay in culture supplemented with NaCl; format: cell-based, Pseudomonas aeruginosa; conditions: culture supplemented with 150 mM NaCl; 4 μg/ml (MIC) or 40 μg/ml (10×MIC); FIG. 25
# Protocol: (§1) Survival of bacteria and C. albicans upon exposure to selected peptides applied at their minimal inhibitory concentrations (MICs) and ten times their MICs was measured using standard methodology. The test organisms were grown in MHB and exposed to the peptides. At the specified time intervals equal aliquots were removed from the cultures, plated on MHB plates, and the resulting colonies were counted. Percentage survival was plotted against time on a logarithmic scale. Two repeats of each experiment were performed.
# Peptides of the invention can be used at a range of pH's, salt concentrations, and temperatures. These peptides are useful against pathogens grown in biofilms or under any other conditions for pathogen growth or culture. See for example FIG. 25 in which the ability of NRC-13 to kill P. aeruginosa K799 in […] is shown. NRC-13 was added to a culture of P. aeruginosa supplemented with 150 mM NaCl to a final concentration of 4 μg/ml (□) or 40 μg/ml (Δ), representing the MIC and 10×MIC, respectively. A control with no peptide added is also shown (♦).
# [2] = test system: Aeromonas salmonicida 99-1, A449
# Protocol: (§4) Most non-fish bacterial strains as well as Candida albicans were grown at 37° C. in Mueller-Hinton Broth (MHB; Difco Laboratories, Detroit), while the fish bacteria were maintained at 16° C. in Tryptic Soy Broth (TSB; Difco, 5g/l NaCl).
# (§5) Two field isolates of the salmonid pathogen Aeromonas salmonicida are from the IMB strain collection.
# as §3
# Pseudomonas aeruginosa = test: Killing assay (survival at MIC and ten times MIC); format: cell-based
# Protocol: as §1
# FIG. 14 describes Survival of a Gram-negative bacterium (Pseudomonas aeruginosa) upon exposure to NRC-13 at its minimal inhibitory concentration (MIC) and ten times its MIC. P. aeruginosa was grown in Mueller-Hinton broth and exposed to NRC-13 at its MIC and ten times its MIC. At the specified intervals equal aliquots were removed from the culture, plated on MHB plates, and the resulting colonies were counted.
# [3] = test system: Candida albicans C627, CALB105
# Protocol: as §2, §3
# [4] = test system: Pseudomonas aeruginosa K799 (H187); format: cell-based; conditions: text statement to FIG. 25
# Protocol: as §2, §3
# [5] = test system: Salmonella enterica s. Typhimurium MS4252S (C610, supersusceptible strain); format: cell-based; conditions: lowest peptide concentration inhibiting growth by at least 50%; Mueller-Hinton broth
# Protocol: as §2, §3
# [6] = test system: Aeromonas salmonicida 97-4
# Protocol: as §4, §5, §3
# [7] = test system: methicillin-resistant Staphylococcus aureus (MRSA) C623, SAP017
# Protocol: as §2, §3
# [8] = test system: Escherichia coli UB1005 (C498); format: cell-based; conditions: lowest peptide concentration inhibiting growth by at least 50%; Mueller-Hinton broth
# Protocol: as §2, §3
# [9] = test system: Salmonella enterica s. Typhimurium 14028S (C587); format: cell-based; conditions: lowest peptide concentration inhibiting growth by at least 50%; Mueller-Hinton broth
# Protocol: as §2, §3
# [10] = test system: Staphylococcus epidermidis C621 (clinical isolate)
# Protocol: as §2, §3
# [11] = test system: Escherichia coli C786, CGSC4908; format: cell-based; conditions: lowest peptide concentration inhibiting growth by at least 50%; supplemented Mueller-Hinton broth
# Protocol: All strains were stored at −70° C. until they were thawed for use and sub-cultured daily.
# Escherichia coli strain CGSC 4908 (his-67, thyA43, pyr-37), auxotrophic for thymidine, uridine, and L-histidine (Cohen et al., 1963) was kindly supplied, free of charge, by the E.coli Genetic Stock Centre (Yale University, New Haven, Conn.). MHB supplemented with 5 mg/L thymidine, 10 mg/L uridine and 20 mg/L L-histidine (Sigma Chemical Co., St. Louis, Mo.), was used to grow E.coli CGSC 4908 unless otherwise specified.
# The activities of the antimicrobial peptides were determined as minimal inhibitory concentrations (MICs) using the microtitre broth dilution method of Amsterdam (Amsterdam, 1996), as modified by Wu and Hancock (1999). Serial dilutions of the peptide were made in water in 96-well polypropylene (Costar, Coming Incorporated, Coming, New York) microtiter plates. Bacteria or C. albicans were grown overnight to mid-logarithmic phase as described above, and diluted to give a final inoculum size of 10^6 cfu/ml. A suspension of bacteria or yeast was added to each well of a 96 well plate and incubated overnight at the appropriate temperature. In the case of E. coli CGSC 4908, supplemented MHB was used. […] Three repeats of each MIC determination were performed.
# [12] = test system: Escherichia coli DC2 (C500, outer membrane-permeable mutant); format: cell-based; conditions: lowest peptide concentration inhibiting growth by at least 50%; Mueller-Hinton broth
# Protocol: as §2, §3
# [13] = test system: bacterial pathogens and C. albicans; test: Spectrum of antimicrobial activity (MIC panel, overall); format: cell-based; conditions: summary of MIC results against bacteria and C. albicans
# Protocol: Three repeats of each MIC determination were performed.
# The minimal inhibitory concentrations of the chemically produced peptides against a wide range of baterial pathogens and C. albicans were determined and are shown in Table 9.
# Vibrio anguillarum = conditions: Coho salmon; Jia et al. 2000; cited from earlier work
substance,measurement,setting,value
GWRTLLKKAEVKTVGKLALKHYL-NH2 [NRC-13],"Minimal inhibitory concentration, P. aeru Z61","[1]; lowest peptide concentration inhibiting growth by at least 50%, Mueller-Hinton broth",1 µg/mL
same,concentration inhibiting the growth of P. aeruginosa,"[1]; strain not stated, value matches Z61 of Table 8",1 µg/mL
same,ability to kill P. aeruginosa K799 in NaCl,P. aeruginosa K799,kill
same,"Minimal inhibitory concentration, A. sal 99-1",[2],4 µg/mL
same,ability to kill P. aeruginosa,"Pseudomonas aeruginosa; at MIC and ten times MIC, Mueller-Hinton broth, FIG. 14",ability to kill
same,concentration killing P. aeruginosa,Pseudomonas aeruginosa; strain not stated,1 µg/mL
same,concentration inhibiting the growth of C. albicans,[3],4 µg/mL
same,"Minimal inhibitory concentration, C. alb C627","[3]; C627, CALB105",4 µg/mL
same,MIC against P. aeruginosa K799,[4],4 µg/mL
same,"Minimal inhibitory concentration, S. typh MS4252s",[5],2 µg/mL
same,"Minimal inhibitory concentration, A. sal 97-4",[6],2 µg/mL
same,concentration inhibiting the growth of A. salmonicida,"[6]; strain not stated, value matches 97-4 of Table 8",2 µg/mL
same,concentration inhibiting the growth of methicillin-resistant S. aureus,[7],4 µg/mL
same,"Minimal inhibitory concentration, MRSA C623","[7]; methicillin-resistant C623, SAP017",4 µg/mL
same,"Minimal inhibitory concentration, E. coli UB1005",[8],4 µg/mL
same,"Minimal inhibitory concentration, S. typh 14028s",[9],8 µg/mL
same,"Minimal inhibitory concentration, S. epi C621",[10],4 µg/mL
same,"Minimal inhibitory concentration, E. coli C786",[11],2 µg/mL
same,"Minimal inhibitory concentration, E. coli DC2",[12],2 µg/mL
same,"antimicrobial activity, overall (in words)",[13],broad spectrum of antimicrobial activity; also recorded: highly active
"pleurocidin (GWGSFFKKAAHVGKHVGKAALTHYL-NH2; UniProt P81941 23-47, looked up) [Synthetic pleurocidin, Synthetic pleurocidin identical to the central portion of WF2 (Jia et al. 2000)]",protection against infection by Vibrio anguillarum,Vibrio anguillarum,protect Coho salmon against infection
